{
  "source": "patent US9456589B2",
  "about": "“Elasmobranch-repelling compounds and methods of use” (priority 2005, dated 2016)",
  "key": {"lemon sharks [1]": {"tested_on": "lemon sharks", "conditions": "Table 24; lemon shark; swab delivery"}, "lemon sharks [2]": {"tested_on": "lemon sharks", "experiment": "Tonic immobility, Hd Syringe Assay", "assay_type": "in vivo, N. brevirostris", "conditions": "lemon; Hd syringe", "experimental": "(§1) One bioassay used to observe and measure flight response is the tonic immobility test. Tonic immobility is a state of paralysis that typically occurs when a shark is subject to inversion of its body along the longitudinal axis. This state is called “tonic,” and the shark can remain in this state for up to 15 minutes thereby allowing researchers to observe effects of chemical repellents. The “tonic” state of the shark is first established by releasing seawater in proximity to the “tonic” shark with the same delivery instrument and at the same distance as a “test” repellent compound will be released. Some controls are released with a high flow rate (30 mL/sec) in order to establish that sharks are not awakened by a jet of fluid over their noses. Once behavioral controls are established, a compound or composition that may have a repelling effect is delivered to the shark. If the compound or composition engenders a flight response, the shark will awaken from the tonic state and rapidly attempt to flee the delivered repellent. Using this tonic immobility bioassay researches can quantify the strength of a repellent effect.\n(§2) Lemon, nurse, blacktip and tiger sharks were placed in tonic immobility by inverting the shark's body along its longitudinal axis. […] The “tonic” state of each shark was first established by releasing a control of seawater in proximity to the shark with the same delivery instrument and at the same distance as the chemical repellent would later be delivered. In certain controls, sea water was released with a high flow rate (30 mL/sec) in order to establish that the sharks would not be awakened by a jet of fluid over their noses.\nOnce behavioral controls were established, the chemical repellent was delivered to the shark using the Hd Syringe Assay method, the Syringe 3/5/10 Assay method, the Bite Assay method or the Micropipette Assay method. […]"}, "nurse sharks [3]": {"tested_on": "nurse sharks", "experiment": "Tonic immobility, Hd Syringe Assay", "assay_type": "in vivo, C. cirratum", "conditions": "nurse; Hd syringe", "experimental": "as §1\nLemon, nurse, blacktip and tiger sharks were placed in tonic immobility by inverting the shark's body along its longitudinal axis. […]"}, "nurse sharks [4]": {"tested_on": "nurse sharks", "experiment": "Tonic immobility, Syringe 3/5/10 Assay", "assay_type": "in vivo, C. cirratum", "conditions": "juvenile nurse sharks"}, "blacktip sharks": {"tested_on": "blacktip sharks", "experiment": "Tonic immobility, Syringe 3/5/10 Assay", "assay_type": "in vivo, C. limbatus", "experimental": "as §1\nIn the tonic immobility studies disclosed herein, several different methods were employed for delivery of repelling compounds. A first method for delivery of chemical repellent in tonic immobility studies employed a “Syringe 3/5/10 Assay” method. The “Syringe 3/5/10 Assay” method is so named because a test repellent is delivered to a shark from a distance of about “3” inches with a bolus of about “5” mL with a response to the test repellent considered positive if the shark reacts with a change in behavior within less than about “10” seconds from the time of delivery.\nThe “3/5/10 Syringe Assay” as employed herein delivered a dose of 5-6 mL of a test chemical repellent from a syringe fixed with a needle having a gauge of about 22 from a distance at least 3 inches in front of a shark. Because the test chemical repellent was delivered at a distance from the shark's nares and mouth, a cloud of test chemical repellent was dispersed over the shark within the water column. The dispersed test repellent was subject to water current direction, dispersion and dilution. As a result, a flight response within 10 seconds was considered a positive repellency response. […] Time from delivery to response is related to the size of the bolus delivered from the syringe, distance of the shark from the syringe and water current.\nas §2\n(§3) Once behavioral controls were established, the chemical repellent was delivered to the shark using the Hd Syringe Assay method, the Syringe 3/5/10 Assay method, the Bite Assay method or the Micropipette Assay method. […] If tonic immobility was terminated, the positive response was denoted as “Y.” If tonic immobility was not terminated but a behavior change within tonic immobility was noted, such as the opening of the mouth or a cough, the response was denoted as an “R” for reduced response. If no behavior change was observed, the negative response was denoted “N.”\nIn Syringe 3/5/10 Assays, 5-6 mL of 3-methylbutanal was delivered at least 3 inches in front of the shark's mouth. A cloud of the repellent dispersed over the shark within the water column. […] As noted above, because the dispersion of the chemical repellent upon delivery is affected by volume of repellent, water current, and other factors, the time between delivery and response was not correlatable with the potency of the repellent. […]"}, "tiger sharks": {"tested_on": "tiger sharks", "experiment": "Tonic immobility, Syringe 3/5/10 Assay", "assay_type": "in vivo, G. cuvieri", "conditions": "tiger shark", "experimental": "as §1\nIn the tonic immobility studies disclosed herein, several different methods were employed for delivery of repelling compounds. A first method for delivery of chemical repellent in tonic immobility studies employed a “Syringe 3/5/10 Assay” method. […]"}, "lemon sharks [5]": {"tested_on": "lemon sharks", "experiment": "Tonic immobility, Micropipette Assay", "assay_type": "in vivo, N. brevirostris", "conditions": "lemon / juvenile sharks; micropipette", "experimental": "as §1\n(§4) A fourth method of delivery was called the “Micropipette Assay” method of delivery. In this method, a very small dose (fraction of a mL) of a test substance was delivered directly into a shark's mouth. […] A response, such as a cough or other notable action of the shark, was usually noted when effective gustatory repellents were delivered directly into a shark's mouth while in tonic immobility.\n(§5) The Micropipette Assay method has not proven to be a particularly effective method of assaying for a flight response in elasmobranchs. The Micropipette Assay method is, nevertheless, an excellent method for specifying that a gustatory response has occurred. It is effective for specifying a gustatory response because the micropipette delivery method allows direct delivery of an entire bolus of test substance into the mouth of the shark being tested.\nUsing a microliter syringe or microliter pipette, a bolus of test chemical can be directed precisely into one of the shark's nares, or its mouth. […] Olfactory repellents will terminate tonic immobility almost immediately when injected into a nare of the shark.\nas §2, §3\nFurther because the Micropipette assays were often done serially on the same set of sharks, second and third doses of the repellent over time would be expected to evoke less of a reaction. Nevertheless, the small doses delivered to the shark in the Micropipette assay provide important data on whether a compound is a gustatory stimulant because the small dose may be delivered directly into the mouth of the shark. This eliminates any olfactory response that might be acting in concert with a gustatory response to terminate tonic immobility."}, "nurse sharks [6]": {"tested_on": "nurse sharks", "experiment": "Tonic immobility, Micropipette Assay", "assay_type": "in vivo, C. cirratum", "conditions": "nurse; micropipette; 270 ul", "experimental": "as §1, §4\nas §5, with “tested. […]” for “tested.”"}, "nurse sharks [7]": {"tested_on": "nurse sharks", "experiment": "Tonic immobility, Bite Assay", "assay_type": "in vivo, C. cirratum", "experimental": "One bioassay used to observe and measure flight response is the tonic immobility test. Tonic immobility is a state of paralysis that typically occurs when a shark is subject to inversion of its body along the longitudinal axis. This state is called “tonic,” and the shark can remain in this state for up to 15 minutes thereby allowing researchers to observe effects of chemical repellents. The “tonic” state of the shark is first established by releasing seawater in proximity to the “tonic” shark with the same delivery instrument and at the same distance as a “test” repellent compound will be released. Some controls are released with a high flow rate (30 mL/sec) in order to establish that sharks are not awakened by a jet of fluid over their noses. Once behavioral controls are established, a compound or composition that may have a repelling effect is delivered to the shark. […] Using this tonic immobility bioassay researches can quantify the strength of a repellent effect. […]\nIn Bite Assays, a dose of typically less than 5 mL of 3-methylbutanal was presented directly into the shark's mouth using a pipette. […] Because the delivery was directly into the shark's mouth and responses were generally observed immediately upon delivery, time to response was not recorded."}, "[8]": {"tested_on": "Caribbean reef and blacknose sharks", "experiment": "Cloud Dispersion Assay on competitively feeding sharks", "assay_type": "in vivo, C. perezii, C. acronotus", "conditions": "290 microliters", "from_the_text": "Another bioassay used to observe a flight response in sharks is a cloud dispersion assay on competitively feeding population of sharks. This assay is referred to as a “Cloud Dispersion Assay” or “Cloud Assay.” A pressurized fluid delivery system was designed to deliver repellent into large feeding populations of sharks. The repellent is released as a subsurface cloud, which follows the current. A 1 L plastic container containing the test chemical repellent solution is pressurized to approximately 20 psig with a battery compressor or hand pump. A globe valve is used to hold back the fluid. The fluid is delivered to the end of a long PVC pole using a Teflon tubing. This allows the operator to place the tip of the pole well into a population of feeding sharks. By actuating the small globe valve, a cloud of the chemical solution is released quickly and reliably into the feeding population. Controls are established using FD&C Red 40 dye and seawater, uncolored seawater, and air. These controls establish that sharks are not afraid to approach the delivery pole, nor are sharks deterred from feeding by the jet of control fluid or air.\nIn each assay disclosed herein, a control of sea water was performed prior to the testing of each test repellent. In the control, sea water was delivered to the shark to be tested in the same delivery manner as the test repellent was delivered. […]"}, "[9]": {"tested_on": "sharks (lemon, nurse, blacknose, blacktip pooled)", "experiment": "Tonic immobility, Syringe Assay, summary over species", "assay_type": "in vivo", "experimental": "as §1\nA second delivery method called the “Syringe Assay” method delivered a dose of 60 mL or more of a test chemical repellent from at least one foot, and up to as many as five feet, from a shark. The distance of delivery was determined based on the strength of the water current in the direction of the shark. Time from delivery of the test substance until response was observed, measured and recorded. The “Syringe” method allows a researcher to observe how a diffusing and diluting cloud of test chemical repellent affects the shark's behavior when the shark encounters the delivered cloud of test substance. The “Syringe” method requires relatively large doses because of the diffusion of the cloud over time and distance. Time from delivery to response is related to the size of the bolus delivered from the syringe, distance of the shark from the syringe and water current.\nIn the Syringe assay about 60 mL or more of valeraldehyde was delivered from one to as many as five feet from the shark depending on the water current. […] Time from delivery to response was related to the size of the bolus delivered from the syringe, distance of the shark from the syringe and water current."}},
  "note": "Several values for one entry are separate records, joined by “and”; a condition that tells them apart may be missing. Equal values may be shown once. Entries after “also recorded” stand apart in the source; their conditions may differ.",
  "data": [
    {"smiles": "O=C(O)CCC(=O)O", "note": "[succinic acid]", "values": [
      {"measurement": "T? (termination of tonic immobility)", "setting": "lemon sharks [1]", "value": "N"}
    ]},
    {"smiles": "CCC(C=O)CC", "note": "[diethylacetaldehyde]", "values": [
      {"measurement": "Comments (behavior observed)", "setting": "lemon sharks [2]", "value": "cough"},
      {"measurement": "Comments (behavior observed)", "setting": "nurse sharks [3]", "value": "cough"},
      {"measurement": "Syringe 3/5/10 assays terminating tonic immobility", "setting": "nurse sharks [4]", "value": "six of six"},
      {"measurement": "Syringe 3/5/10 assays terminating tonic immobility", "setting": "blacktip sharks; blacktip sharks", "value": "two of four"},
      {"measurement": "Syringe 3/5/10 assays with behavioral response", "setting": "blacktip sharks; blacktip sharks", "value": "behavioral response"},
      {"measurement": "Syringe 3/5/10 assays with no response", "setting": "blacktip sharks; blacktip sharks", "value": "no response"},
      {"measurement": "Comments (behavior observed)", "setting": "blacktip sharks; blacktip, syringe 3/5/10", "value": "cough/tensed"},
      {"measurement": "Syringe 3/5/10 assay outcome", "setting": "tiger sharks", "value": "terminated"},
      {"measurement": "Comments (behavior observed)", "setting": "lemon sharks [5]", "value": "blinked; also recorded: cough"},
      {"measurement": "Response (time from delivery to response)", "setting": "nurse sharks [6]", "value": 1, "unit": "s"}
    ]},
    {"smiles": "CC(=O)C(C)=O", "note": "[2,3-butanedione]", "values": [
      {"measurement": "Bite Y (termination of tonic immobility), trials of trials", "setting": "nurse sharks [7]", "value": "terminated and 1/1"},
      {"measurement": "Cloud/Cage N (no response)", "setting": "[8]", "value": "no response and 1/1"},
      {"measurement": "Syringe N (no response), trials of trials", "setting": "[9]", "value": "1/8"},
      {"measurement": "Syringe R (behavior response within tonic immobility), trials of trials", "setting": "[9]", "value": "behavioral response"},
      {"measurement": "Syringe Y (termination of tonic immobility), trials of trials", "setting": "[9]", "value": "seven of eight and 7/8"}
    ]}
  ]
}
